In patent US7585886B2, “Pyrrolidine derivative or salt thereof” (Astellas Pharma Inc., priority 2005, dated 2009):
Where a name gives a salt, the structure may show the parent alone. Read-outs that look alike come from different tables or passages of the source.

Legend:
[1] = target: T1, CYP2D6 (Homo sapiens, UniProt P10635); assay: Human CYP2D6 inhibition test (fluorescence substrate AMMC); assay type: in vitro ADME; parameters: purchased BD Gentest 456217
Method: Test 3. Human CYP2D6 Inhibition Test
Inhibitory activity evaluation for CYP2D6 was carried out by measuring it in accordance, roughly, with a reference (“Drug Metabolism and Disposition”, 2001, vol. 29, p. 1196-1200).
Final concentrations of the reagents in the enzyme reaction solution were respectively ser to CYP2D6=[…] (mfd. by BD Gentest, Cat. No.: 456217), reduced type nicotinamide adenine dinucleotide phosphate (NADPH) regeneration system (0.0081 mM nicotinamide adenine dinucleotide phosphate (NADP+), 0.41 mM glucose-6-phosphate, 0.41 mM MgCl2, […] glucose-6-phosphate dehydrogenase), and a fluorescence substrate AMMC=1.5 μM, 100 mM potassium phosphate buffer (pH 7.4). Each compound was made into a 50% acetonitrile solution and added to the enzyme reaction solution (acetonitrile final concentration 2.5%). The enzyme reaction was carried out at 37° C. for 30 minutes, the reaction was stopped using a stopping liquid (0.1 M tris(hydroxymethyl)aminomethane (Tris-base):acetonitrile=20:80), and then fluorescence intensity was measured. The concentration showing 50% inhibition (IC50) was calculated from the thus obtained fluorescence intensity, by defining the enzyme activity at the time of no compound addition as 100%.

[2] = target: T2, human CaSR (Homo sapiens, UniProt P41180); assay: Human calcium sensing receptor (CaSR) agonistic activity test (FLIPR, Fluo-3 intracellular Ca2+); assay type: cell-based
T2 construct: human CaSR open reading frame (ORF) was contained in the pcDNA3.1/Zeo(+) vector; expressed in transfected cells
T2 sequence (P41180 20-1078): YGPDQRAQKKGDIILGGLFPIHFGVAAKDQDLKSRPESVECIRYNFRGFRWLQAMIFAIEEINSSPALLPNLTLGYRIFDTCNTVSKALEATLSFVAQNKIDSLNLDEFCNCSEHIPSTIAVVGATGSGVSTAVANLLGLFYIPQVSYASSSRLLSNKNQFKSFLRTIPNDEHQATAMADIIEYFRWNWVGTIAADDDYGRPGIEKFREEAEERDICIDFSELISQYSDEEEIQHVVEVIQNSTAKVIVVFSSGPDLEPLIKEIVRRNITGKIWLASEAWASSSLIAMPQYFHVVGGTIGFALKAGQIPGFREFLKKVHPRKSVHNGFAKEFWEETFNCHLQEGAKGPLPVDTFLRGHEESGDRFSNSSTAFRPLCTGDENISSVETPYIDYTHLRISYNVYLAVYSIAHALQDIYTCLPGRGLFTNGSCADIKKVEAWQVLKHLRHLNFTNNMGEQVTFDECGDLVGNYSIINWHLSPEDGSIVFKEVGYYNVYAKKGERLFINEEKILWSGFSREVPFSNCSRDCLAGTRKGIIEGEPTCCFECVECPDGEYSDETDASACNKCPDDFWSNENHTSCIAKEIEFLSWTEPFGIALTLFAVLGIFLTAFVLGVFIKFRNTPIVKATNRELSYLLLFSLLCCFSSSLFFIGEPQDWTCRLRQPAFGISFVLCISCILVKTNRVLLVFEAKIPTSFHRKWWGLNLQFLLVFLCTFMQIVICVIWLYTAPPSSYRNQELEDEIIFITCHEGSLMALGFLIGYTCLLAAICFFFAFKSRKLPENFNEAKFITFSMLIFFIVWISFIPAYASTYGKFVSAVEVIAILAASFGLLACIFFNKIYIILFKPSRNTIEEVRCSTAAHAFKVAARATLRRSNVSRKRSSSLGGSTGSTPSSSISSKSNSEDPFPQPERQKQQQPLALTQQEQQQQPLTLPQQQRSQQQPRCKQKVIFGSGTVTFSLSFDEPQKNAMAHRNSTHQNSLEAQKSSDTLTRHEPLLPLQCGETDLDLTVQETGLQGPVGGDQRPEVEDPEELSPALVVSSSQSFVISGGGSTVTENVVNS
Excerpt: Test 1. Human Calcium Sensing Receptor (CaSR) Agonistic Activity Test
• 1) Preparation of Human CaSR Expression Vector
A DNA fragment coding for human CaSR was cloned in the standard method. Illustratively, using 203 to 2387 of NM_000388 as a DNA fragment D4, and 2210 to 3633 as a DNA fragment B2, they were amplified using a human kidney cDNA (mfd. by Invitrogen) as the template and using a DNA polymerase (a registered trade name: Pyrobest, mfd. by Takara Bio), and respectively cloned into a pCR2.1 vector using a pCR2.1-Topo vector (mfd. by Invitrogen). Next, DNA fragments prepared by digesting pCR2.1-D4 with SpeI and XbaI were inserted into the same sites of pcDNA3.1/Zeo(+) vector. Successively, the fragments prepared by digesting pCR2.1-B2 with SacI and XbaI were inserted into the SacI and XbaI sites of previously prepared pcDNA3.1/Zeo(+)-D4 (SpeI-XbaI), thereby obtaining a human CaSR expression vector pcDNA3.1/Zeo(+)-hCaSR in which human CaSR open reading frame (ORF) was contained in the pcDNA3.1/Zeo(+) vector. • 2) Preparation of Human CaSR Expression Cell
The human CaSR expression vector was transferred into HEK 293 cell using a transfection reagent (registered trademark: FuGene 6, mfd. by Roche Diagnostics). After the gene transfer, this was cultured in DMEM (mfd. by Invitrogen) medium containing 40 μg/ml Zeocin (registered trademark) (mfd. by Invitrogen) and 10% fetal bovine serum at 37° C. for 2 weeks in the presence of 5% CO2, thereby obtaining Zeocin-resistant clones. An human CaSR stably expressing HEK 293 clone was obtained from these clones by selection using the responsiveness to extracellular Ca^2+ as the index. • 3) Human CaSR Agonistic Activity Test
The HEK 293 cell stably expressing human CaSR was inoculated into a poly-D-lysine-coated black clear bottom 96 well plate (mfd. by BD Bioscience). Hanks' balanced salt solution (HBSS) (Ca^2+ (−), Mg^2+ (−), mfd. by Invitrogen) containing 20 mM HEPES (2-[4-(2-hydroxyethyl)-1-piperazinyl]ethanesulfonic acid) buffer (pH 7.4), 2.5 mM probenecid (mfd. by Sigma) and 0.1% bovine serum albumin was prepared as a washing buffer. After the inoculation and subsequent overnight culturing, the medium was discarded, the washing buffer supplemented with 1 mM CaCl2 and 10 μM Fluo-3 AM (trade name, mfd by DOJINDO) was added thereto in 100 μl per well portions, and then the incubation was carried out at 37° C. for 1Hour in the presence of 5% CO2. This was washed twice with 200 μl of the washing buffer, replaced by 100 μl of the washing buffer supplemented with 0.5 mM CaCl2 and allowed to stand still for 10 minutes, and then the responsiveness to each compound to be evaluated was detected using a plate reader for fluorometry image analysis use (registered trademark: FLIPR, mfd. by Molecular Devices). In this connection, the compound to be evaluated was used by optionally diluting with the washing buffer supplemented with 0.5 mM Ca^2+.
The human CaSR agonistic activity strength of each compound to be evaluated was calculated by defining the solvent group as 0% and the 2 mM Ca^2+ in final concentration group as 100%, and the compound concentration showing 50% activity (EC50) was calculated from a concentration-activity curve by the method of least squares.

[3] = Measurement of rat plasma calcium concentration after single oral administration; assay type: in vivo; conditions: normal male rats, 3 mg/kg oral administration
Method: Test 2. Measurement of Rat Plasma Calcium Concentration and Plasma PTH Concentration
The compounds of the invention were administered to rats, and their influences upon the plasma calcium concentration and plasma PTH concentration were examined. The test was carried out by single oral administration of the compounds 5 or 6 normal male rats.
As a vehicle group, an MC solution prepared by adding 0.5% methyl cellulose (MC) solution or ethanol to a final concentration of 5% was administered at a dose of 5 ml/kg. As the comparative control, cinacalcet was dissolved in the MC solution and administered at a dose of 3 mg/kg. Each of the compounds, of the invention was dissolved or suspended the MC solution, or dissolved in ethanol and then diluted with the MC solution as occasion demands, and administered at a dose of 1, 3 or 10 mg/kg.
Blood samples were collected from the orbital venous plexus under ether anesthesia before the administration and 2Hours, 4Hours, or 8Hours in some cases, after the administration, and the plasma calcium concentration was measured using Calcium E-Test Wako (mfd. by Wako Pure Chemical Industries), and the plasma PTH concentration using Rat Intact PTH ELISA Kit (mfd. by Immutopics) or Rat Bioactive Intact PTH ELISA Kit (mfd. by Immutopics).

[4] = target: T1, CYP2D6; conditions: reported, Non-patent Reference 4; cited from earlier work
[5] = HEK 293 cell stably expressing human CaSR, 0.5 mM Ca2+ buffer, solvent group 0%, 2 mM Ca2+ group 100%, read-out: EC50 (compound concentration showing 50% activity), human CaSR agonistic activity
[6] = recombinant CYP2D6, AMMC 1.5 μM, 37° C. 30 minutes, read-out: IC50 (concentration showing 50% inhibition), CYP2D6

T1 sequence (P10635 whole entry): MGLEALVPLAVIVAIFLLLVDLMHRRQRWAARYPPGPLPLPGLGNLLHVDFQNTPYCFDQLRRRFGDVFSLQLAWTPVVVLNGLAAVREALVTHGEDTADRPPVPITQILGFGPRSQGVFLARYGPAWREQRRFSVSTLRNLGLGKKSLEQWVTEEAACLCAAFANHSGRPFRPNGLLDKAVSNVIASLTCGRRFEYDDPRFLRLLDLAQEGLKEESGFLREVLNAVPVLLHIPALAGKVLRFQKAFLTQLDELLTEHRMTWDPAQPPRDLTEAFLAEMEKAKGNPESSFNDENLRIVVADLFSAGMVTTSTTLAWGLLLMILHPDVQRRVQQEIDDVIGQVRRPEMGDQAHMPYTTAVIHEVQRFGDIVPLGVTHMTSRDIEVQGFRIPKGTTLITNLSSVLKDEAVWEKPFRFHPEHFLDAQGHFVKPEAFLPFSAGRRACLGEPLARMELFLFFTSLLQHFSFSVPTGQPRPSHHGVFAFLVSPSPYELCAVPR

Compound	EC50 [2, 5] [nM]	IC50 [1, 6] [nM]	further results
C[C@@H](NC[C@H]1CN(c2c(F)cc(C(=O)O)cc2F)C[C@@H]1c1ccccc1)c1cccc2ccccc12 [Example 31, 3,5-difluoro-4-[(3S,4S)-3-({[(1R)-1-(1-naphthyl)ethyl]amino}methyl)-4-phenylpyrrolidin-1-yl]benzoic acid hydrochloride]	3.6	–	IC50 at 30 min ([1]; human, recombinant CYP2D6 (BD Gentest, Cat. No. 456217), pH 7.4, probe AMMC 1.5 μM, recombinant CYP2D6, AMMC 1.5 μM, 37° C. 30 minutes, read-out: IC50 (concentration showing 50% inhibition), CYP2D6): ≥ 6000 nM
C[C@@H](NC[C@H]1CN(C(=O)Oc2ccc(C(=O)O)cc2)C[C@@H]1c1ccccc1)c1cccc2ccccc12.Cl [Example 33, 4-({[(3S,4S)-3-({[(1R)-1-(1-naphthyl)ethyl]amino}methyl)-4-phenylpyrrolidin-1-yl]carbonyl}oxy)benzoic acid hydrochloride]	–	–	Rat plasma calcium concentration reducing ratio (%) 4 hours after administration [3]: 21%; EC50 [2]: 2.3 nM
C[C@@H](NC[C@H]1CN(C(=O)Nc2ccc(C(=O)O)cc2)C[C@@H]1c1ccccc1)c1cccc2ccccc12 [Example 41, 4-({[(3S,4S)-3-({[(1R)-1-(1-naphthyl)ethyl]amino}methyl)-4-phenylpyrrolidin-1-yl]carbonyl}amino)benzoic acid hydrochloride]	4.9	≥ 6000	–
COc1cc(C(=O)O)ccc1NC(=O)N1C[C@H](CN[C@H](C)c2cccc3ccccc23)[C@@H](c2ccccc2)C1 [Example 45, 3-methoxy-4-({[(3S,4S)-3-({[(1R)-1-(1-naphthyl)ethyl]amino}methyl)-4-phenylpyrrolidin-1-yl]carbonyl}amino)benzoic acid hydrochloride]	3.1	≥ 6000	–
C[C@@H](NC[C@H]1CN(C(=O)CCCCC(=O)O)C[C@@H]1c1cccc(C(F)(F)F)c1)c1cccc2ccccc12 [Example 48, 6-{(3S,4S)-3-({[(1R)-1-(1-naphthyl)ethyl]amino}methyl)-4-[3-(trifluoromethyl)phenyl]pyrrolidin-1-yl}-6-oxohexanoic acid hydrochloride]	4	–	–
C[C@@H](NC[C@H]1CN(C(=O)c2ccc(-c3ccsc3C(=O)O)o2)C[C@@H]1c1ccccc1)c1cccc2ccccc12 [Example 98]	5.2	≥ 6000	–
C[C@@H](NC[C@H]1CN(C(=O)CC(C)(C)CC(=O)O)C[C@@H]1c1ccccc1)c1cccc2ccccc12 [Example 109]	28	≥ 6000	Rat plasma calcium concentration reducing ratio (%) 4 hours after administration [3]: 17%
C[C@@H](NC[C@H]1CN(c2ccc(-c3nnn[nH]3)cc2)C[C@@H]1c1ccccc1)c1cccc2ccccc12 [Example 130]	15	–	–
Cc1cccc([C@H]2CN(c3c(F)cc(C(=O)O)cc3F)C[C@@H]2CN[C@H](C)c2cccc3ccccc23)c1 [Example 171]	16	–	Rat plasma calcium concentration reducing ratio (%) 4 hours after administration [3]: 20%
C[C@@H](NC[C@H]1CN(C(=O)Oc2ccc(C(=O)O)cc2)C[C@@H]1c1cccc(F)c1)c1cccc2ccccc12 [Example 174]	–	–	EC50 [2]: 3.4 nM
C[C@@H](NC[C@H]1CN(C(=O)Oc2ccc(C(=O)O)cc2)C[C@@H]1c1cccc(F)c1F)c1cccc2ccccc12 [Example 179]	–	–	IC50 [1]: ≥ 6000 nM; EC50 [2]: 0.77 nM
COc1cc(C(=O)O)ccc1NC(=O)N1C[C@H](CN[C@H](C)c2cccc3ccccc23)[C@@H](c2cccc(C)c2)C1 [Example 183]	3.5	≥ 6000	Rat plasma calcium concentration reducing ratio (%) 4 hours after administration [3]: 20%
C[C@@H](NCCCc1cccc(C(F)(F)F)c1)c1cccc2ccccc12 [cinacalcet]	–	–	activity to inhibit CYP2D6 (in words) [4]: strong activity to inhibit CYP2D6
CC(NC[C@H]1CN(C(=O)Oc2ccc(C(=O)O)cc2)C[C@@H]1c1ccccc1)c1csc2ccccc12 (stereo partly shown) [compound 53]	5.2	–	–
